For eleven molecules, IC50 and oral absorption results are on record in EP1227083A1, “3-AMINOPIPERIDINE DERIVATIVES AS INTEGRIN $g(a)v$g(b)3 ANTAGONISTS” (Meiji Seika Kaisha, Ltd., priority 1999, dated 2001).

The structures appear in SMILES notation. Several values for one entry are separate records, joined by “and”; a condition that tells them apart may be missing. Equal values may be shown once. Read-outs that look alike come from different tables or passages of the source.

The target in series [1] is GP IIb/IIIa (Homo sapiens, UniProt P05106+P08514). In words: GP IIb/IIIa antagonistic activity (method of Pharmacological Test 2 in WO 94/21599). It is filed as binding. As to conditions: read-out: IC50 (GP IIb/IIIa antagonistic activity). As for the experimental part: GP IIb/IIIa antagonistic activity was measured for compounds according to the present invention. The measurement of the GP IIb/IIIa antagonistic activity was carried out according to the method described in Pharmacological Test 2 in WO 94/21599.
Sequence of GP IIb/IIIa (P08514 32-887 limits assumed): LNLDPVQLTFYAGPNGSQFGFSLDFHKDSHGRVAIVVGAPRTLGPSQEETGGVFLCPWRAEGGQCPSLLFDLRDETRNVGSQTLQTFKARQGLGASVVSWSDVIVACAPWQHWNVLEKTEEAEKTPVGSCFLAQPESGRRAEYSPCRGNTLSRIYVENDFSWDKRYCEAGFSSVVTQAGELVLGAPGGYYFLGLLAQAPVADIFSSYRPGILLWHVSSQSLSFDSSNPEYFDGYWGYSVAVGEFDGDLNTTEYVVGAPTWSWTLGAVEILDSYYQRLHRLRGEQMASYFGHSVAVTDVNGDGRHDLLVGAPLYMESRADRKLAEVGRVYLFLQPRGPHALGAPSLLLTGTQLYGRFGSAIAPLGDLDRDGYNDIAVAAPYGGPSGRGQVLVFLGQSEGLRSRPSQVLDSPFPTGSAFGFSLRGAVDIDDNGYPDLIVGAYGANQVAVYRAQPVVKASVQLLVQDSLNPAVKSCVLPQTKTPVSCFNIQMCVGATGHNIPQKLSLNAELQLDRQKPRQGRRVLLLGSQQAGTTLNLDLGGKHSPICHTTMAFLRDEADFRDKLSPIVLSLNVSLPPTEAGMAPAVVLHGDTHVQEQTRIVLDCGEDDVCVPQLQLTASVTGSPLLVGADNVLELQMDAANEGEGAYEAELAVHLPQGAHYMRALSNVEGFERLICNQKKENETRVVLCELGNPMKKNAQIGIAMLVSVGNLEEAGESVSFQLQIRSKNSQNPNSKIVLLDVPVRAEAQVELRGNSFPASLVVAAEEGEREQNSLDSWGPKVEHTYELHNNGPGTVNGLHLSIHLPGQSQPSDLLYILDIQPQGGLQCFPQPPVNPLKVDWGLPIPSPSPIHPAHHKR
Sequence of GP IIb/IIIa (P08514 891-1039 partner limits assumed): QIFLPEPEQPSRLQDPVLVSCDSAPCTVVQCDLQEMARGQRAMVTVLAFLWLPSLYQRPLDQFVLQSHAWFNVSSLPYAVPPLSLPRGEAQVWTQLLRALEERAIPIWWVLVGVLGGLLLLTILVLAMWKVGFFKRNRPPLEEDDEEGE
Sequence of GP IIb/IIIa (P05106 27-788): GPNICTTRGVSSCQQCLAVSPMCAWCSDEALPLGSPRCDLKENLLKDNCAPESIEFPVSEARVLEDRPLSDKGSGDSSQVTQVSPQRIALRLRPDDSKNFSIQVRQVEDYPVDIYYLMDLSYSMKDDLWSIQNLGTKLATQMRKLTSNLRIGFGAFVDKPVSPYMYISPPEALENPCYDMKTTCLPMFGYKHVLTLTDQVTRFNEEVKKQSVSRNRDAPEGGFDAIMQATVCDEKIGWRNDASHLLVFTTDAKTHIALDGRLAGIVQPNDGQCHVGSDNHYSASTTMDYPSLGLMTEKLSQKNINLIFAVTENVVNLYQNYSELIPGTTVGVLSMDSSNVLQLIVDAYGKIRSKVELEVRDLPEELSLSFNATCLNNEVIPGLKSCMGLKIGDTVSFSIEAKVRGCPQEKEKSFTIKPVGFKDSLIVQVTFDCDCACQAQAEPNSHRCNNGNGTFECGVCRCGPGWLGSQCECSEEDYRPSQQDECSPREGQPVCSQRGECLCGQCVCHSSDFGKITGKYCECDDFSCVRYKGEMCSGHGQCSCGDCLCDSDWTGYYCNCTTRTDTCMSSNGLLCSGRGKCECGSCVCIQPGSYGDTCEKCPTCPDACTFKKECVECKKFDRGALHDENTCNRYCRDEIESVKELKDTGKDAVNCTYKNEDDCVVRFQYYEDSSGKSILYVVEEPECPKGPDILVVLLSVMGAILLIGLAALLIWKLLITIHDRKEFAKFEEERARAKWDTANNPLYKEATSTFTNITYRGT

In series [2] the target is T1, Integrin αvβ3 (vitronectin receptor) (Homo sapiens, UniProt P05106+P06756).
T1 construct: a vitronectin receptor (protein content: 118 µg/ml) purified from the human placenta; from tissue; host or cells: human placenta
T1 sequence (P06756 31-889 limits assumed): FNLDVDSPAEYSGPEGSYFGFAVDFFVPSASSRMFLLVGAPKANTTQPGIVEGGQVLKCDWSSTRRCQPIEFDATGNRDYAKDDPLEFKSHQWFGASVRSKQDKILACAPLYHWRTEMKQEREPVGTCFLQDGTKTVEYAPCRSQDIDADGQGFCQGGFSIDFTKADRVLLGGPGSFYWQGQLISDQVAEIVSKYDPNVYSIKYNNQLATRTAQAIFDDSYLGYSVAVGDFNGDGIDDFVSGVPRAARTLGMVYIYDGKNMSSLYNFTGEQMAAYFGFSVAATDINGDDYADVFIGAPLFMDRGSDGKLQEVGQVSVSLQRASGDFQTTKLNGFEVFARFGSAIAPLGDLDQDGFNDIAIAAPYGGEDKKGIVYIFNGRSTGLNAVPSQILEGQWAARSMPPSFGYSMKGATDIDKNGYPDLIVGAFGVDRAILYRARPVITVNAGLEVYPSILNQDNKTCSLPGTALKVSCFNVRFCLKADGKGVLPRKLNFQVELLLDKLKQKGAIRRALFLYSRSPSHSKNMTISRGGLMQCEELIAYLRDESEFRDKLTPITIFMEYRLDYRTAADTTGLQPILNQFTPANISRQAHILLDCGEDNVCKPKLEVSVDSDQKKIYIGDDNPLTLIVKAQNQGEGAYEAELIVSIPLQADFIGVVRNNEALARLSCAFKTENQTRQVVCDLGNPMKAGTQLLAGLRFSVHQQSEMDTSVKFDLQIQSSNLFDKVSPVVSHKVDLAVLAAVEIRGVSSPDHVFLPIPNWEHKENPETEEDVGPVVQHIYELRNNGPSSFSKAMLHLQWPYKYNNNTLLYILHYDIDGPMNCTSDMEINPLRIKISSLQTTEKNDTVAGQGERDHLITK
T1 sequence (P06756 891-1048 partner limits assumed): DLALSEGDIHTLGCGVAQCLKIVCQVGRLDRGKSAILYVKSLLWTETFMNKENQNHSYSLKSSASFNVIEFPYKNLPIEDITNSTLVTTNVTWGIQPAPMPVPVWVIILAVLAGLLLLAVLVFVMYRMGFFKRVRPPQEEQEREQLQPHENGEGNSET
T1 sequence (P05106 27-788): as the sequence (P05106 27-788) above
Kind of series: αvβ3 Binding assay (vitronectin-vitronectin receptor binding assay). As for the experimental part: Pharmacological Test Example 1: αvβ3 Binding assay
Integrin αvβ3 antagonistic activity of compounds according to the present invention was measured in a vitronectin-vitronectin receptor binding assay system in accordance with the method of Kouns et al. (W. C. Kouns, D. Kirchhofer, P. Hadvary, A. Edenhofer, T. Weller, G. Pfenninger, H. R. Baumgartner, L. K. Jennings and B. Steiner, Blood, 80, 2539-2547 (1992)).
Specifically, a vitronectin receptor (protein content: 118 µg/ml) purified from the human placenta in accordance with the method of Pytela et al. (R. Pytela, M. D. Pierschbacher, S. Argraves, S. Suzuki, and E. Ruoslahti, Method in Enzymology, 144, 475-489 (1987)) was diluted 50 times with TBS (20 mM Tris-HCl, 150 mM NaCl, 1 mM CaCl2, 1 mM MgCl2, pH 7.4), and distributed and coated on wells (50 µl/well) of a plate (Maxisorp, Nunc, 96 well Immuno Plate). The plate was then allowed to stand at 4°C for one day, washed twice with TBS (200 µl/well), and then subjected to blocking with TBS (150 µl/well) containing 1% bovine serum albumin (SIGMA) at 4°C overnight. After washing twice with TBS (200 µl/well), 50 µl of vitronectin (CALBIOCHEM) adjusted to 0.2 µg/ml by the addition of TBS (TBS-Tween) containing 0.01% Tween-20 was mixed with 50 µl of each test compound adjusted to each concentration in wells, and a reaction was allowed to proceed at room temperature for 4 hr. After the completion of the reaction, the wells were washed three times with TBS-Tween. A solution prepared by diluting anti-vitronectin rabbit antiserum (CHEMICON) 500 times with TBS-Tween was added as a primary antibody in an amount of 50 µl/well, and a reaction was allowed to proceed at room temperature for 1.5 hr. After washing three times with 200 µl/well of TBS-Tween, a peroxidase (POD)-labeled anti-rabbit IgG antibody solution (CAPPEL) diluted 500 times with TBS-Tween was added as a secondary antibody in an amount of 50 µl/well, and a reaction was allowed to proceed at room temperature for 1.5 hr. After washing three times with TBS-Tween (200 µl/well), ABTS (2,2'-azino-bis(3-ethylbenzthiazoline-6-sulfonic acid), SIGMA) was adjusted to 1 mg/ml by the addition of a ten-fold diluted POD-buffer (ZYMED), and was added in an amount of 50 µl/well, and a reaction was allowed to proceed for 5 to 10 min. A 0.1 M citric acid buffer (pH 4.3) containing 0.05% NaN3 was added in an amount of 50 µl/well to stop the reaction, followed by the measurement of the absorbance at 415 nm with a microplate reader (MTP 32, Corona Electric) (reference: 675 nm). The total binding was defined as the absorbance after a reaction using 50 µl of TBS-Tween instead of the test compound, and the non-specific binding (100% inhibition) was defined as the absorbance after a reaction using 50 µl of TBS-Tween containing 2 x 10^-3 M RGDS. The inhibition was calculated by the following equation: Inhibition (%) = 100-((absorbance in the presence of test compound - non-specific binding))/((total binding - non-specific binding))× 100 [formula]
IC50 was determined from a primary regression line of the logarithm of each concentration of the test compound and the logarithm of (100 - inhibition)/inhibition.

For series [3], the system named is human platelet aggregation. Kind of series: Human platelet aggregation inhibitory activity (method of Pharmacological Test 1 in WO 94/21599). It is filed as cell-based. As for the experimental part: Human platelet aggregation inhibitory activity was measured for compounds according to the present invention. The measurement of the human platelet aggregation inhibitory activity was carried out according to the method described in Pharmacological Test 1 in WO 94/21599.

Series [4] is described as follows: Oral absorption in rats. It is filed as in vivo. As to conditions: data not shown.
Series [5] has as its system human vascular smooth muscle cells. Kind of series: Inhibitory activity against adhesion of human vascular smooth muscle cells to vitronectin. It counts as cell-based. As to conditions: immobilized human vitronectin. As for the experimental part: Pharmacological Test Example 3: Inhibitory activity against adhesion of human vascular smooth muscle cells to vitronectin
The adhesion of human vascular smooth muscle cells to immobilized human vitronectin was measured in accordance with the method of Liaw et al. (Liaw L, Almeida M, Hart CE, Schwartz SM, and Giachelli CM, Circulation Research, 74 (2), 214-224 (1994)).
A Dulbecco's phosphate buffer (Dulbecco's PBS(-), Nissui Pharmaceutical Co., Ltd.) solution of human plasma-derived vitronectin (CALBIOCHEM) adjusted to a concentration of 4 µg/ml was first added to wells (50 µl/well) of a microplate (Maxisorp, Nunc), and a reaction for immobilization was allowed to proceed at 4°C overnight. […]
Next, 50 µl of a Dulbecco's modified Eagle's basal medium containing 0.1% of bovine serum albumin with a medicament added thereto was added to the wells of the human vitronectin-coated assay microplate, followed by pre-cultivation under 5% carbon dioxide at 37°C for 10 min. […] The absorbance of the microplate thus obtained was measured at 595 nm. […] The inhibition was calculated by the following equation. IC50 was determined from a primary regression line of the logarithm of each concentration of the test compound and the logarithm of (100 - inhibition)/inhibition. […]

[6] abbreviates: read-out: IC50 (integrin αvβ3 antagonistic activity); vitronectin binding to vitronectin receptor purified from the human placenta.
Where [7] appears, read: vitronectin binding to vitronectin receptor purified from the human placenta; read-out: IC50 (integrin αvβ3 antagonistic activity).

As to `O=C(NC[C@H](NS(=O)(=O)c1ccccc1)C(=O)O)c1ccc(N2CCC[C@H](Nc3ccccn3)C2)cc1` [Example 27, (2S) -Benzenesulfonylamino-3-[4-{(3S)-(pyridin-2-ylamino)piperidin-1-yl}-benzoylamino]propionic acid], the IC50 is no more than 1.1 nM in series [1] and no more than 1 nM in series [2] (setting [6]).

With `O=C(NC[C@H](NS(=O)(=O)c1ccccc1)C(=O)O)c1ccc(N2CCC[C@H](N=C3NCCCN3)C2)cc1` [Example 25, (2S)-Benzenesulfonylamino-3-[4-{(3S)-(1,4,5,6-tetrahydropyrimidin-2-ylamino)piperidin-1-yl}benzoylamino]propionic acid], the IC50 in series [1] is no more than 1.1 nM; in series [2] (setting [7]) it was no more than 1 nM; in series [3] it was 56 nM.

Regarding `O=C(NC[C@H](NS(=O)(=O)c1cccs1)C(=O)O)c1ccc(N2CCC[C@H](N=C3NCCCN3)C2)cc1` [Example 44, 3-[4-{(3S)-(1,4,5,6-Tetrahydropyrimidin-2-ylamino)piperidin-1-yl}benzoylamino]-(2S)-{(thiophene-2-sulfonyl)amino}propionic acid], the figures for the IC50 in series [1] and in series [2] (setting [7]) were no more than 1.1 nM and no more than 1 nM, respectively.

Consider `O=C(NC[C@H](NS(=O)(=O)c1ccccc1)C(=O)O)c1ccc(N2CCC[C@H](NC3=NCCCN3)C2)c(F)c1` [Example 6, (2S)-Benzenesulfonylamino-3-[3-fluoro-4-{(3S)-(1,4,5,6-tetrahydropyrimidin-2-ylamino)piperidin-1-yl}benzoylamino]propionic acid], for which the IC50 in series [1] was ≤ 1.1 nM and 1.1 nM.

Take `O=C(NC[C@H](NS(=O)(=O)c1ccccc1)C(=O)O)c1ccc(N2CCC[C@@H](NC3=NCCCN3)C2)c(F)c1` [Example 9, (2S)-Benzenesulfonylamino-3-[3-fluoro-4-{(3R)-(1,4,5,6-tetrahydropyrimidin-2-ylamino)piperidin1-yl}benzoylamino]propionic acid]: the IC50 in series [1] was no more than 1.1 nM.

As for `O=C(NC[C@H](NS(=O)(=O)c1ccccc1)C(=O)O)c1ccc(N2CCCC(NC3=NCCCN3)C2)cc1` (stereo partly drawn) [Example 3, (2S)-Benzenesulfonylamino-3-[4-{3-(1,4,5,6-tetrahydropyrimidin-2-ylamino)piperidin-1-yl}benzoylamino]propionic acid], the IC50 in series [1] was no more than 1.1 nM; in series [2] (setting [6]), no more than 1 nM.

On to `O=C(NC[C@H](NS(=O)(=O)c1ccccc1)C(=O)O)c1ccc(N2CCC[C@H](NC3=NCCCN3)C2)c(Cl)c1` [Example 22, (2S)-Benzenesulfonylamino-3-[3-chloro-4-{(3S)-(1,4,5,6-tetrahydropyrimidin-2-ylamino)piperidin-1-yl}benzoylamino]propionic acid], for which the IC50 in series [1] is no more than 1.1 nM.

`O=C(NC[C@H](NS(=O)(=O)c1ccccc1)C(=O)O)c1ccc(N2CCC[C@H](Nc3ncccn3)C2)c(F)c1` [Example 5, (2S)-Benzenesulfonylamino-3-[3-fluoro-4-{(3S)-(pyrimidin-2-ylamino)piperidin-1-yl}benzoylamino]-propionic acid]: the oral absorption entry in series [4] is “had oral absorption”.

For the molecule `O=C(NC[C@H](NS(=O)(=O)c1ccccc1)C(=O)O)c1ccc(N2CCC[C@H](NC3=NCCCN3)C2)c(F)c1F` [Example 19, (2S)-Benzenesulfonylamino-3-[2,3-difluoro-4-{(3S)-(1,4,5,6-tetrahydropyrimidin-2-ylamino)piperidin-1-yl}benzoylamino]propionic acid], the IC50 is no more than 1.1 nM in series [1] and no more than 1 nM in series [2] (setting [6]).

For `O=C(NC[C@H](NS(=O)(=O)c1ccccc1)C(=O)O)c1ccc(N2CCC[C@H](N=C3NCCCN3)C2)cc1F` [Example 30, (2S)-Benzenesulfonylamino-3-[2-fluoro-4-{(3S)-(1,4,5,6-tetrahydropyrimidin-2-ylamino)piperidin-1-yl}benzoylamino]propionic acid], the IC50 in series [1] is no more than 1.1 nM; in series [2] (setting [7]), no more than 1 nM; in series [5], 13 nM.

As to `O=C(NC[C@H](NS(=O)(=O)c1ccccc1)C(=O)O)c1ccc(N2CCCC(Nc3ncccn3)C2)cc1` (stereo partly drawn) [Example 2, (2S)-Benzenesulfonylamino-3-[4-{3-(pyrimidin-2-ylamino)piperidin-1-yl}benzoylamino]propionic acid], the IC50 in series [1] is no more than 1.1 nM.
